From US9782489B2, “MetAP-2 inhibitor polymersomes for therapeutic administration” (priority 2007, dated 2017)
Entries after “also recorded” stand apart in the source; their conditions may differ.

What was measured:
[1] = post-administration; cited from earlier work
[2] = tested on: LLC tumors; test: Oral Lodamin vs free TNP-470, primary Lewis lung carcinoma tumor experiments; format: in vivo, C57Bl/6J mice; details: 30 mg/kg q.o.d. oral (TNP-470 equivalent), day 18, FIG. 9A; listed as free TNP-470
Method: For tumor experiments: LLC cells (1×10^6) or B16/F10 melanoma cells (1×10^6) were implanted subcutaneously in 8 week old C57Bl/6J male mice (Jackson Laboratories, Bar Harbor, Me.). Oral availability of free TNP-470 was compared to that of Lodamin. A dose of 30 mg/kg q.o.d. of free TNP-470 and an equivalent dose of Lodamin (Lodamin, 6 mg in 100 μl/d) were administered to LLC tumor bearing mice (˜100 mm^3) and tumor growth was followed for 18 d. Free drug was given as a suspension in double distilled water and freshly prepared before each dose. Additionally, we compared different doses and frequencies of Lodamin treatment: 15 mg/kg q.d., 15 mg/kg q.o.d. and 30 mg/kg q.o.d. To eliminate any possible effect of the vehicle (polymer without drug) one group of mice was given micelles without drug and tumor progression was compared to water treated mice.
For the melanoma tumor experiment, a dose of 15 mg/kg q.d. Lodamin was administered to B16/F10 melanoma bearing mice. In all experiments, tumor size and animal weight were monitored every 2 d. Tumor volume was measured with calipers in two diameters as follows: (width)×(length)×0.52. Note that all the above Lodamin doses are presented as TNP-470 equivalent.

[3] = Balance beam motor coordination test (neurotoxicity); format: in vivo; details: 30 mg/kg q.o.d. for 14 d; Lodamin oral, free TNP-470 injected subcutaneously; vs water treated mice
Method: A slightly modified balance beam motor coordination test was performed on three groups of mice: Oral Lodamin treated mice (30 mg/kg eq. q.o.d.), free TNP-470 (30 mg/kg) subcutaneously injected mice and water treated mice (administered by gavage). The mice were pretreated for 14 d (n=4-5 per group) and then the mice were allowed to acclimate to the procedure room for 1 h, after which they were trained in 3 trials to cross a wide (20 mm width×1 m length) balance beam. All the mice crossed the wide beam without making foot-slip errors. The mice were then trained on a narrow (4 mm width×1 m length) beam for 3 trials. At the end of the training trials, no freezing behavior was observed, and the mice would start to walk within 4 seconds of being placed on the beam. The mice were then videotaped as they performed in 3 test trials of 3 beam crossings each—a total of 9 crossings per mouse. The 3 trials were separated by at least 1 h to avoid fatigue of the mice. Videotaped crossings were scored for number of foot-slip errors and time to cross. All experiments and scoring of the different groups were performed by an investigator who has been no knowledge regarding the treatment regime of the mice.

[4] = tested on: murine, human and metastatic tumors; details: mice; most studies 30 mg/kg subcutaneously every other day; cited from earlier work
[5] = tested on: obesity; details: mice; cited from earlier work
[6] = high chemotherapeutic doses; cited from earlier work
[7] = in vivo; cited from earlier work

| Molecule | time up to which detected in mice sera [1] | inhibition of LLC tumor growth [2] | balance beam performance (foot-slip errors) [3] | inhibition of growth of human tumors [4] | inhibition of growth of metastatic tumors [4] | inhibition of growth of murine tumors [4] | effect on obesity [5] | adverse effects in patients [6] | plasma half-life of the drug [7] | plasma half-life of the metabolites [7] |
| --- | --- | --- | --- | --- | --- | --- | --- | --- | --- | --- |
| 6-O—(N-chloroacetylcarbamoyl) fumagillol [TNP-470] | up to 2 h | – | – | – | – | – | – | – | – | – |
| COC1C(OC(=O)NC(=O)CCl)CCC2(CO2)C1[C@@]1(C)O[C@@H]1CC=C(C)C (stereo partly shown) [TNP-470, 6-O—(N-chloroacetylcarbamoyl) fumagillol] | – | no inhibition; also recorded: no effect | over twice as many errors | up to 100% | up to 100% | up to 91% | prevent diet-induced and genetic obesity | neurotoxicity | a few minutes | less than 2 hr |
